In brackets after ≈: the same amount, converted by molar mass.
Experiments:
HUVEC [1] = experiment: Antiangiogenic activity against HUVEC cells assessed as inhibition of vascular formation after 6 hrs by […]; type: functional, cell-based; settings: Homo sapiens
Renca [2] = experiment: Cytotoxicity against mouse Renca cells; type: functional, cell-based
[3] = Antiinvasive activity against mouse Colon 26-L5 by Matrigel assay; type: functional
[4] = Cytotoxicity against HUVEC cells at >10 ug/ml; type: cell-based; settings: human, read-out: INH
[5] = Cytotoxicity against mouse Colon 26-L5 cells; type: functional, cell-based
Renca [6] = experiment: Cytotoxicity against mouse Renca cells at >10 ug/ml; type: functional
Renca [7] = experiment: Antiinvasive activity against mouse Renca at >1 ug/ml by Matrigel assay; type: functional
Renca [8] = experiment: Antiinvasive activity against mouse Renca by Matrigel assay; type: functional, cell-based
[9] = Antiinvasive activity against mouse Colon 26-L5 at >1 ug/ml by Matrigel assay; type: functional
HUVEC [10] = experiment: Antiangiogenic activity against HUVEC cells assessed as inhibition of vascular formation at >1 ug/ml after 6 hrs by […]; type: functional, Homo sapiens
HUVEC [11] = experiment: Cytotoxicity against HUVEC cells; type: cell-based; settings: Homo sapiens
[12] = Cytotoxicity against mouse Colon 26-L5 cells at >1 ug/ml; type: functional
[13] = Antiinvasive activity against mouse Colon 26-L5 assessed as inhibition of cell migration at >1 ug/ml after 6 hrs by Matrigel assay; type: functional
[14] = Antiinvasive activity against mouse Colon 26-L5 assessed as inhibition of cell migration after 6 hrs by Matrigel assay; type: functional
HUVEC [15] = experiment: Antiinvasive activity against HUVEC assessed as inhibition of cell migration after 6 hrs by Matrigel assay; type: functional, cell-based; settings: Homo sapiens
[16] = target: Matrix metalloproteinase-9 (Homo sapiens, UniProt P14780); experiment: Inhibition of MMP9
[17] = target: 72 kDa type IV collagenase (Homo sapiens, UniProt P08253); experiment: Inhibition of MMP2
Sequence of 72 kDa type IV collagenase (P08253 whole entry): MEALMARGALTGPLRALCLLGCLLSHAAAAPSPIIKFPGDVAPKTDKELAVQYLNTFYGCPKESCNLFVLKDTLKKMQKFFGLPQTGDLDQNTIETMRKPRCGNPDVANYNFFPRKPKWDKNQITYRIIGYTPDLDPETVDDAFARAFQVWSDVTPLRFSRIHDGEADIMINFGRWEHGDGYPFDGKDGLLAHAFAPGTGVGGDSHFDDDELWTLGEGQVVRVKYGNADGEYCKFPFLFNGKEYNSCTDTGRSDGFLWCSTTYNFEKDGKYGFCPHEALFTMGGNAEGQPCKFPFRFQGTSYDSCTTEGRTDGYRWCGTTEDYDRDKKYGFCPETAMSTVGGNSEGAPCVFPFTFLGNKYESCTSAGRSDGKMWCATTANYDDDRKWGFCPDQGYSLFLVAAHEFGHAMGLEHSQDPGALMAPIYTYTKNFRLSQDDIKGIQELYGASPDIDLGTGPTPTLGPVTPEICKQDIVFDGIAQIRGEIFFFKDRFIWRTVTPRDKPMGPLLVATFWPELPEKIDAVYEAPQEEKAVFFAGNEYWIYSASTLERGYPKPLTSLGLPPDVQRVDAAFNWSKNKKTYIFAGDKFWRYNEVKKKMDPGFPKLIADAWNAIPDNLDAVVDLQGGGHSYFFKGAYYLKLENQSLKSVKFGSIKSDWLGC

Sequence of Matrix metalloproteinase-9 (P14780 whole entry): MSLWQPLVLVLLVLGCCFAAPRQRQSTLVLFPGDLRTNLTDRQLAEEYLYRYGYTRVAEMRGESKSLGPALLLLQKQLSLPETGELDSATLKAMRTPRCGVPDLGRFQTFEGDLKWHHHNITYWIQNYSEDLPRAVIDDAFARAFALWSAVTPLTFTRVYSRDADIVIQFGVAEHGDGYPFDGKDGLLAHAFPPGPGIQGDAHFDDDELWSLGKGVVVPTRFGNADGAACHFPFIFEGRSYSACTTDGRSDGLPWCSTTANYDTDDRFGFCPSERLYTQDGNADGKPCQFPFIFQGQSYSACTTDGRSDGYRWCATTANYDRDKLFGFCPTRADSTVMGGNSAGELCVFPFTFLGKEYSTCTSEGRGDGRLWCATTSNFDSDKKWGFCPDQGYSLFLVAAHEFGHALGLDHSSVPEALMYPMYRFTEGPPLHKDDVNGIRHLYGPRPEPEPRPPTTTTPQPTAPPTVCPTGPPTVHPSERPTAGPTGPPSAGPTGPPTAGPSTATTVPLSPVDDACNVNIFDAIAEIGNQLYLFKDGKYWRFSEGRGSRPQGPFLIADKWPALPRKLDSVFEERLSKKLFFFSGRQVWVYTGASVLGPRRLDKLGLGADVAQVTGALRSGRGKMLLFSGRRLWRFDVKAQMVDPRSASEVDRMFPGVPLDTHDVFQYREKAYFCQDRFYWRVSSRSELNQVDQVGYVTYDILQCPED

Structure (SMILES)	IC50 [3] [µg/mL]	IC50 (Renca [8]) [µg/mL]	IC50 [14] [µg/mL]	IC50 [16] [µM]	IC50 [17] [µM]	IC50 (HUVEC [1]) [µg/mL]	IC50 (Renca [2]) [µg/mL]	cytotoxicity [4] [%]	IC50 [5] [µg/mL]	inhibition (INH) (Renca [6]) [%]	inhibition (INH) (Renca [7]) [%]	inhibition (INH) [9] [%]	inhibition (INH) (HUVEC [10]) [%]	IC50 (HUVEC [11]) [µg/mL]	inhibition (INH) [12] [%]	inhibition (INH) [13] [%]	IC50 (HUVEC [15]) [µg/mL]
CC(=O)Oc1cc(OC(C)=O)c2c(c1)N(C/C=C(\C)CC/C=C(\C)CCC=C(C)C)C(=O)c1cccc(OC(C)=O)c1N2	> 1	> 1				> 1	> 10	0	7.6 (≈ 12.9 µM)	0	40	0	0	> 10			
CO[C@@H]1[C@H](OC(=O)/C=C/C=C/C=C/C=C/C(=O)O)CC[C@]2(CO2)[C@H]1[C@@]1(C)O[C@@H]1CC=C(C)C [FUMAGILLIN]						0.034 (≈ 0.0741 µM)											0.023 (≈ 0.0502 µM)

Second part, led by results:

IC50 [3] [µg/mL]	IC50 (Renca [8]) [µg/mL]	IC50 [14] [µg/mL]	IC50 [16] [µM]	IC50 [17] [µM]	Structure (SMILES)	IC50 (HUVEC [1]) [µg/mL]	IC50 (Renca [2]) [µg/mL]	cytotoxicity [4] [%]	IC50 [5] [µg/mL]	inhibition (INH) (Renca [6]) [%]	inhibition (INH) (Renca [7]) [%]	inhibition (INH) [9] [%]	inhibition (INH) (HUVEC [10]) [%]	IC50 (HUVEC [11]) [µg/mL]	inhibition (INH) [12] [%]	inhibition (INH) [13] [%]	IC50 (HUVEC [15]) [µg/mL]
1 (≈ 1.96 µM)	1 (≈ 1.96 µM)				COc1cc(OC)c2c(c1)N(CCC(C)CCCC(C)CCCC(C)C)C(=O)c1cccc(OC)c1N2 (stereo not drawn)	> 1	> 10	32	> 10	31	44		30	> 10	8		
> 1	> 1	> 1			CC(C)CCCC(C)CCCC(C)CCN1C(=O)c2cccc(O)c2Nc2c(O)cc(O)cc21 (stereo not drawn)	0.23 (≈ 0.491 µM)	> 10	0	10 (≈ 21.3 µM)	0	40	30		> 10		22	0.0024 (≈ 0.00512 µM)
1 (≈ 1.98 µM)	0.78 (≈ 1.55 µM)	0.67 (≈ 1.33 µM)			COc1cc(OC)c2c(c1)N(C/C=C(\C)CC/C=C(\C)CCC=C(C)C)C(=O)c1cccc(OC)c1N2	0.11 (≈ 0.218 µM)	> 10	0	> 10	40				> 10	30		0.0076 (≈ 0.0151 µM)
1 (≈ 2.16 µM)	0.78 (≈ 1.69 µM)	0.63 (≈ 1.36 µM)	1.3	0.994	CC(C)=CCC/C(C)=C/CC/C(C)=C/CN1C(=O)c2cccc(O)c2Nc2c(O)cc(O)cc21 [DIAZEPINOMICIN]	0.72 (≈ 1.56 µM)	8.3 (≈ 17.9 µM)		7.8 (≈ 16.9 µM)					2 (≈ 4.32 µM)			0.43 (≈ 0.93 µM)
